Read-outs that look alike come from different tables or passages of the source.
Columns and labels:
[1] = test system: HT-29 human colon carcinoma; test: [3H] thymidine uptake cell proliferation assay, HT29; assay type: cell-based; settings: read-out: Cell Proliferation Effects (IC50 (nM))
M3 murine melanoma cells = test: [3H] thymidine uptake cell proliferation assay, M3; assay type: cell-based; settings: Mus musculus, read-out: Cell Proliferation Effects (IC50 (nM))
[2] = test system: PC3 (human prostate carcinoma); test: [3H] thymidine uptake cell proliferation assay, PC3; assay type: cell-based; settings: PC-3, read-out: Cell Proliferation Effects (IC50 (nM))
B16-F1 (murine melanoma) = test: [3H] thymidine uptake cell proliferation assay, B16F1; assay type: cell-based; settings: Mus musculus, read-out: Cell Proliferation Effects (IC50 (nM))
DU-145 (human carcinoma) = test: [3H] thymidine uptake cell proliferation assay, DU145; assay type: cell-based; settings: read-out: Cell Proliferation Effects (IC50 (nM))
[3] = target: PKB, full-length recombinant bovine protein, alpha form (Bos taurus, UniProt Q01314); test: PKB inhibition in vitro enzyme assay (radioactive phosphate incorporation, scintillation counting); assay type: biochemical; settings: for IC50: PKB in vitro enzyme assay, 15 min at room temperature
U-87 (human glioma) = test: [3H] thymidine uptake cell proliferation assay, U87; assay type: cell-based
Method: Compounds were added to culture at mid-logarithmic growth and incubated for 20 hours. (N=8 for the values+standard errors). […] Cell lines A-549 (human lung carcinoma), B16-F1 (murine melanoma), B16-F10 (murine melanoma), DU-145 (human […] carcinoma), LS-180 (human colon carcinoma), PC3 (human prostate carcinoma), SKOV-3 (human ovarian carcinoma), U-87 (human glioma), and NIH-3T3 (murine embryonic fibroblasts) were all cultured in DMEM supplemented with 10% fetal bovine serum. M3 murine melanoma cells were cultured in DMEM/F12 1:1, and HT-29 human colon carcinoma and LL2 Lewis Lung […] lung carcinoma were cultured in RPMI1640. All the foregoing cell lines were obtained from ATCC. All cells were passaged regularly using 0.25% Trypsin-EDTA in order to maintain cells at exponential growth for various experiments. LS 180 cells were passaged without trypsin and were physically scraped off the culture flasks. In vitro [^3H] thymidine uptake assay. Proliferation can be measured by quantifying the amount of [^3H] thymidine uptake into cells using a β-counter, and therefore is a well-established diagnostic tool to measure DNA synthesis within the cells. […] The cells were allowed to adhere to the plates via incubation at 37° C. in 5% CO2 for 12–14 hours. […] Then, 10 μL of the compound was added to the pre-existing 90 μL per well, and incubated further at 37° C. in 5% CO2 for 20 hours. To measure thymidine incorporation, cells were fixed onto the culture wells by slowly adding ¼^th volume of cold 50% TCA into each well (25 μL to each well) and incubated for 1–2 hours at 4° C. Wells were washed 5 times with tap water to remove any free [^3H] thymidine in the media, and air-dried completely at room temperature. Then, 100 μL of scintillation fluid was added to each well and the activity counted using a Wallac Microbeta Counter.

[4] = test system: LL2 Lewis Lung human lung carcinoma; test: [3H] thymidine uptake cell proliferation assay, LL2; assay type: cell-based; settings: LL/2, read-out: Cell Proliferation Effects (IC50 (nM))
[5] = test system: B16-F10 (murine melanoma); test: [3H] thymidine uptake cell proliferation assay, B16F10; assay type: cell-based; settings: Mus musculus, read-out: Cell Proliferation Effects (IC50 (nM))
[6] = test system: A-549 (human lung carcinoma); test: [3H] thymidine uptake cell proliferation assay, A549; assay type: cell-based; settings: A459 cells, read-out: Cell Proliferation in A459 IC50 in nm
[7] = test system: SKOV-3 (human ovarian carcinoma); test: [3H] thymidine uptake cell proliferation assay, SKOV3; assay type: cell-based; settings: SK-OV-3, read-out: Cell Proliferation Effects (IC50 (nM))
[8] = test system: NIH-3T3 (murine embryonic fibroblasts); test: [3H] thymidine uptake cell proliferation assay, NIH3T3; assay type: cell-based; settings: Mus musculus; NIH3T3, non-tumorigenic cell line; read-out: Cell Proliferation Effects (IC50 (nM))
[9] = for comparison; cited from earlier work
[10] = U87, read-out: Cell Proliferation IC50 in nm (starred: tested in U7 cells, not U87), read-out: Cell Proliferation IC50 in nm (starred: tested in U7 cells, not A459)

PKB, full-length recombinant bovine protein, alpha form, sequence (Q01314 whole entry): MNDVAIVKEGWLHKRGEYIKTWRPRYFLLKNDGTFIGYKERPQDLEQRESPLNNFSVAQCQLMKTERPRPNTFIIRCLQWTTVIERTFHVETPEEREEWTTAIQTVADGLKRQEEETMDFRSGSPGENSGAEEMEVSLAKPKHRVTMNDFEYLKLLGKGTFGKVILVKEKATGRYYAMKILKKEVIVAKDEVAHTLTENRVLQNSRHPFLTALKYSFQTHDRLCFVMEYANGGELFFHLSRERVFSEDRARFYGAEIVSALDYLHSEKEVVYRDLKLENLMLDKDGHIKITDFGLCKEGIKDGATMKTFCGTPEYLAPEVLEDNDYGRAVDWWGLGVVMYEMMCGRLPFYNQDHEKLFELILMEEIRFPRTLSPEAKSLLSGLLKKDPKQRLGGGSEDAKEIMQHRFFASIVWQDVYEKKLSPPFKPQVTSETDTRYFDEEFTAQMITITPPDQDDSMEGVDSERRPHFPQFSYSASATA

SMILES | IC50 [3] | IC50 [6] | also measured
O=C1c2ccccc2-c2nn3nnnc3nc21 [KP-17483] | 15 µM | > 10 µM | IC50 [1]: 500 nM; IC50 (M3 murine melanoma cells): 30 nM; IC50 [2]: 250 nM; IC50 (B16-F1 (murine melanoma)): 80 nM; IC50 (DU-145 (human carcinoma)): 50 nM; PKB inhibition in in vitro enzyme assay (in words) [3]: found to inhibit PKB; IC50 (U-87 (human glioma); U-87 MG, U87, read-out: Cell Proliferation Effects (IC50 (nM))): 50 nM; IC50 [4]: 750 nM; IC50 [5]: 750 nM; IC50 [7]: 300 nM; IC50 [8]: 200 nM
O=C1c2ccccc2-c2nc3c(O)cccc3nc21 [KP-23172-001] | > 100 µM | > 10 µM | 
O=C(O)c1ccc2nc3c(nc2c1)-c1ccccc1C3=O [KP-23172-002] | > 100 µM | > 10 µM | 
O=C(c1ccccc1)c1ccc2nc3c(nc2c1)-c1ccccc1C3=O [KP-23172-003] | > 100 µM | > 10 µM | 
O=C1c2ccccc2-c2nc3c(O)nc(O)nc3nc21 [KP-23172-004] | > 100 µM | > 10 µM | 
O=C1c2ccccc2-c2nc3cc(Cl)c(Cl)cc3nc21 [KP-23172-006] | > 100 µM | > 10 µM | 
Cc1cc2nc3c(nc2cc1C)-c1ccccc1C3=O [KP-23172-007] | > 100 µM | > 10 µM | 
O=C1c2ccccc2-c2nc3c(nc21)CCCC3 [KP-23172-015] | > 100 µM | > 10 µM | 
Cc1cc2nc3c(nc2cc1C)-c1ccccc1/C3=N\Nc1ccccc1 [KP-23172-017] | > 100 µM |  | 
c1ccc2c(c1)[nH]c1nn3nnnc3nc12 [KP-23172-018] | > 100 µM |  | IC50 (U-87 (human glioma); [10]): > 10000 nM
N#Cc1nc2c(nc1C#N)-c1ccccc1C2=O [KP-23172-019] | > 100 µM |  | IC50 (U-87 (human glioma); [10]): > 10000 nM
O=C1c2cc3ccccc3cc2-c2nc3nnnn3nc21 [KP-23172-020] | > 100 µM | 0.1 µM | 
O=C(O)c1nc2c(nc1C(=O)O)-c1ccccc1C2=O [KP-23172-021] | > 100 µM | > 10 µM | 
O=C1c2ccccc2-c2nc3cc4ccccc4cc3nc21 [KP-23172-026] | > 100 µM |  | 
N#CC(=O)N/N=C1/c2ccccc2-c2nc3nnnn3nc21 [KP-23172-027] | > 100 µM | 0.5 µM | 
Cc1ccc2nc3c(nc2c1)-c1ccccc1C3=O [KP-23172-028] | > 100 µM | > 10 µM | 
Cc1ccc2nc3c(nc2c1)C(=O)c1ccccc1-3 [KP-23172-029] | > 100 µM | > 10 µM | 
O=C1c2ccccc2-c2nc3c4ccccc4c4ccccc4c3nc21 [KP-23172-31] | > 100 µM |  | 
Clc1ccc(COC(Cn2ccnc2)c2ccc(Cl)cc2Cl)c(Cl)c1 (centres unmarked) [miconazole] |  |  | 1:1 binding constant (reported in the literature) [9]: 363

Further lines, with some results ahead:

IC50 [3] | IC50 [6] | SMILES | also measured
> 100 µM | > 10 µM | Cn1c(=O)c2nc3c(nc2n(C)c1=O)C(=O)c1ccccc1-3 [KP-23172-005] | 
> 100 µM | > 10 µM | c1ccc2c(c1)Cc1nn3nnnc3nc1-2 [KP-23172-008] | 
> 100 µM | > 10 µM | O=C1c2ccccc2-c2nc3c(O)ncnc3nc21 [KP-23172-009] | 
> 100 µM |  | Oc1ncnc2nc3c(nc12)CCc1ccccc1-3 [KP-23172-010] | 
> 100 µM |  | c1ccc2c(c1)CCc1nc3nnnn3nc1-2 [KP-23172-011] | 
> 100 µM |  | Oc1cccc2nc3c(nc12)CCc1ccccc1-3 [KP-23172-012] | 
> 100 µM |  | Cc1cc2nc3c(nc2cc1C)-c1ccccc1CC3 [KP-23172-013] | 
> 100 µM |  | O=C1c2ccccc2-c2nccnc21 [KP-23172-016] | 
> 100 µM |  | O=c1c2ccccc2c2nc3c(=S)nc(S)c3nc12 [KP-23172-022] | IC50 (U-87 (human glioma); [10]): 5000 nM
> 100 µM | 0.5 µM | N/N=C1/c2ccccc2-c2nc3nnnn3nc21 [KP-23172-023] | 
> 100 µM | > 10 µM | c1ccc(N/N=C2/c3ccccc3-c3nc4nnnn4nc32)cc1 [KP-23172-024] | 
> 100 µM |  | c1ccc(N/N=C2\C(=N/Nc3ccccc3)Nc3ccccc32)cc1 [KP-23172-025] | 
20 µM | 0.046 µM | COc1ccc2c(c1)-c1nc3nnnn3nc1C2=O [KP-23172-030] | 
